Experimental data: patent US20100069393A1, “METHOD OF TREATMENT AND AGENTS USEFUL FOR SAME” (PRANA BIOTECHNOLOGY LIMITED, priority 2006, published 2010)

Key:
[1] = Neurotoxicity assay: MTS viability of primary cortical neuronal cultures; assay type: cell-based, mouse; settings: BL6Jx129sv, mouse, primary cortical neuronal cultures, Neuronal cells, read-out: Cytotoxicity (% viable at 1 and 10 uM); for viability at 4 days, 1 uM: test compound 1 uM; for viability at 4 days, 10 uM: test compound 10 uM
Experimental: Media was then replaced with Neurobasal media (Invitrogen Life Technologies) and B27 supplements (Invitrogen Life Technologies). Cultures were maintained at 37° C. in 5% CO2. Prior to experimentation, the culture medium was replaced with Neurobasal media and B27 minus antioxidants (Invitrogen Life Technologies).
Cell viability is determined using the MTS assay. Culture medium is replaced with fresh neurobasal medium plus B27 supplements minus antioxidants. 1/10th volume MTS solution (Cell Titre 96 Aqueous One, Promega Corporation) and incubated at 37° C., 2 hrs. 200 microlitre aliquots are measured with a spectrophotometer at 560 nm.
Neuronal cortical cells were cultured for five days as per Assay 2 in NB media and B27 supplement.
On day six the test compounds were added to the neuronal cell cultures in NB media and B27 supplement minus antioxidants.
Test compounds were dissolved in 100% DMSO to a concentration of 2.5 mM (10 mM if excess compound was weighed out per vial—then diluted to 2.5 mM). […] Test compounds were not added directly to cells, instead they were added to a 48 well ‘Drug Plate’ as comprised below:
The Drug Plate was incubated at 37° C. for 15 mins. 200 μl of each well was added in triplicate to the corresponding cell plate. The cell plate was incubated at 37 C, for 4 days.
On completion of the assay, 1/10 volume MTS was added per well of plate (i.e. 25 μl/250 μl). The plates were incubated at 37 C for 2 hrs, and then absorbance was read at 560 nm.

[2] = Cytotoxicity: viability of M17 cells; settings: human, M17 neuroblastoma cells, Cytotoxicity (% viable at 1 and 10 uM); for viability at 1 uM: test compound 1 uM; for viability at 10 uM: test compound 10 uM

Row | Compound | viability at 4 days, 1 uM [1] [%] | viability at 4 days, 10 uM [1] [%] | viability at 1 uM [2] [%] | viability at 10 uM [2] [%]
1 | O=S(=O)(O)c1cc(I)c(O)c2ncccc12 | 70 | 71 |  | 
2 | Oc1c(I)cc(-c2ccccc2C(F)(F)F)c2cccnc12 | 91 | 90 |  | 
3 | Cc1ccccc1-c1cc(I)c(O)c2ncccc12 | 99 | 38 |  | 
4 | COc1ccccc1-c1cc(-c2ccccc2OC)c2cccnc2c1O | 100 | 52 |  | 
5 | COc1ccccc1-c1cc(I)c(O)c2ncccc12 | 91 | 35 |  | 
6 | Oc1c(-c2ccccc2C(F)(F)F)cc(Cl)c2cccnc12 | 96 | 93 |  | 
7 | Oc1c(I)cc(-c2ccccc2F)c2cccnc12 | 92 | 34 |  | 
8 | Oc1ccccc1-c1cc(Cl)c2cccnc2c1O | 100 | 70 |  | 
9 | O=C(NCCc1c[nH]cn1)c1ccc2cccc(O)c2n1 | 100 | 100 |  | 
10 | O=C(NCc1ccccn1)c1ccc2cccc(O)c2n1 | 96 | 85 |  | 
11 | O=C(NCCc1ccccn1)c1ccc2cccc(O)c2n1 | 95 | 93 |  | 
12 | O=C(Nc1ccccc1O)c1ccc2cccc(O)c2n1 | 104 | 92 |  | 
13 | O=C(Nc1nccs1)c1ccc2cccc(O)c2n1 | 100 | 100 |  | 
14 | Cc1cnc(NC(=O)c2ccc3cccc(O)c3n2)s1 | 94 | 68 |  | 
15 | O=c1c(-c2ccc(Cl)cc2)cnc2c(O)cccn12 | 97 | 42 | 41.2 | 25.8
16 | Nn1cnc2c(O)c(Cl)cc(Cl)c2c1=O | 103 | 101 | 113 | 104
17 | O=c1c2cccc(O)c2ncn1Cc1ccccn1 |  |  | 109 | 96
18 | O=c1c2cccc(O)c2ncn1CC1CC1 |  |  | 104 | 111
19 | CCc1cnc2c(O)cccn2c1=O |  |  | 96.1 | 27.1
20 | CCn1cnc2c(O)ccc(Cl)c2c1=O |  |  | 101 | 85.4
21 | CCCn1cnc2c(O)ccc(Cl)c2c1=O |  |  | 89.4 | 79.4
22 | O=c1c2c(Cl)ccc(O)c2ncn1CC1CC1 |  |  | 86.3 | 57.6
23 | O=c1c2c(Cl)ccc(O)c2ncn1Cc1ccccn1 |  |  | 93.6 | 88.4
24 | O=c1c2c(Cl)cc(I)c(O)c2ncn1Cc1ccccn1 |  |  | 102 | 99.2
25 | CCc1cnc2c(O)cccn2c1=S |  |  | 93.3 | 73.7
26 | O=C(NCc1ccc(F)cc1)c1cnc2c(O)cccn2c1=O |  |  | 76.7 | 54.2

Row | Compound | viability at 4 days, 1 uM [1] [%] | viability at 4 days, 10 uM [1] [%] | viability at 1 uM [2] [%] | viability at 10 uM [2] [%]
27 | O=c1c2cccc(O)c2ncn1-c1ccc(F)cc1 |  |  | 92.7 | 67.5
28 | CCCCNC(=O)c1cnc2c(O)cccn2c1=O |  |  | 98.8 | 48.4
29 | O=c1c2ccc(I)c(O)c2ncn1-c1ccc(F)cc1 |  |  | 94.6 | 30.2
30 | CCN(CC)CCn1cnc2c(O)c(I)ccc2c1=O |  |  | 106 | 41.4
31 | O=c1c2c(Cl)cc(I)c(O)c2ncn1-c1cccnc1 |  |  | 97.4 | 95
32 | CCCNC(=O)Cn1cnc2c(O)c(I)ccc2c1=O |  |  | 84.3 | 95.5
33 | CCN(CC)C(=O)Cn1cnc2c(O)c(I)ccc2c1=O |  |  | 92.2 | 98.7
34 | O=C1c2ccccc2C(=O)N1CCn1cnc2c(O)c(I)ccc2c1=O |  |  | 127 | 105
35 | O=C(Nc1nc2ccc(F)cc2s1)c1cnc2c(O)cccn2c1=O |  |  | 60.1 | 34.2
36 | CCCCCn1cnc2c(O)c(I)ccc2c1=O |  |  | 86.3 | 38.5
37 | O=C(Cn1cnc2c(O)cccc2c1=O)Nc1ccccn1 |  |  | 110 | 98.2
38 | CCC(C)Cn1cnc2c(O)cccc2c1=O (stereo not shown) |  |  | 103 | 47.2
39 | O=C1c2ccccc2C(=O)N1CCn1cnc2c(O)cccc2c1=O |  |  | 104 | 106
40 | CCC(C)Cn1cnc2c(O)c(I)ccc2c1=O (stereo not shown) |  |  | 42.8 | 19.3
41 | CCN(CC)C(=O)Cn1cnc2c(O)cccc2c1=O |  |  | 118 | 102
42 | O=C(Nc1cnc2ccccc2c1)c1cnc2c(O)cccn2c1=O |  |  | 102 | 32.8
43 | CCN(CC)CCNC(=O)c1cnc2c(O)cccn2c1=O |  |  | 115 | 103
44 | CCCCCn1cnc2c(O)c(Cl)cc(Cl)c2c1=O |  |  | 81.3 | 56.8
45 | CCC(C)Cn1cnc2c(O)c(Cl)cc(Cl)c2c1=O (stereo not shown) |  |  | 85.1 | 39.4
46 | O=c1c2cccc(O)c2ncn1-c1nc2ccc(F)cc2s1 |  |  | 99.1 | 73.7
47 | O=c1c2cccc(O)c2ncn1-c1ccc(F)cc1F |  |  | 104 | 104
48 | O=C(Nc1ccc(F)cc1F)c1cnc2c(O)cccn2c1=O |  |  | 99.4 | 67.1
49 | O=c1c2cccc(O)c2ncn1Cc1ccccc1 |  |  | 98.5 | 90.4
50 | O=c1c2cccc(O)c2ncn1Cc1nc2ccccc2[nH]1 |  |  | 107 | 108
51 | O=c1c2ccc(I)c(O)c2ncn1CCNS(=O)(=O)c1ccc(F)cc1 |  |  | 96.5 | 43
52 | CCCS(=O)(=O)NCCn1cnc2c(O)c(I)ccc2c1=O |  |  | 104 | 98.6

Row | Compound | viability at 4 days, 1 uM [1] [%] | viability at 4 days, 10 uM [1] [%] | viability at 1 uM [2] [%] | viability at 10 uM [2] [%]
53 | O=c1c(CCCC2CCSS2)cnc2c(O)cccn12 (stereo not shown) |  |  | 106 | 27.2
54 | O=C1c2ccccc2C(=O)N1CCn1cnc2c(O)c(Cl)cc(Cl)c2c1=O |  |  | 104 | 101
55 | O=c1c(-c2ccc(F)cc2)cnc2c(O)cccn12 |  |  | 75.3 | 33.8
56 | O=c1c2cccc(O)c2ncn1-c1cccnc1 |  |  | 106 | 110
57 | O=C1NC(=O)c2cc(-n3cnc4c(O)cccc4c3=O)ccc21 |  |  | 102 | 103
58 | COc1ccc(-n2cnc3c(O)cccc3c2=O)cn1 |  |  | 97.8 | 110
59 | O=c1c2cccc(O)c2ncn1Cc1ccncc1 |  |  | 105 | 104
60 | O=c1c2cccc(O)c2ncn1CCc1ccccn1 |  |  | 107 | 96.2
61 | O=c1c2cccc(O)c2ncn1-c1nc2ccccc2[nH]1 |  |  | 108 | 103
62 | CCCCc1cnc2c(O)c(-c3ccc(F)cc3)ccn2c1=O |  |  | 101 | 37.9
63 | CCCCc1cnc2c(O)c(-c3ccc(OC)cc3)ccn2c1=O |  |  | 79.2 | 64.4
64 | CCCCc1cnc2c(O)c(-c3cccnc3)ccn2c1=O |  |  | 92.1 | 38.2
65 | O=c1c2cccc(O)c2ncn1Cc1ccc(F)cc1 |  |  | 97.2 | 60.5
66 | CCCCc1cnc2c(O)c(-c3cccc(OC)c3)ccn2c1=O |  |  | 94.5 | 59.1
67 | CCCc1cnc2c(O)c(Cl)ccn2c1=O |  |  | 98.1 | 38.9
68 | O=c1c2c(Cl)cc(Cl)c(O)c2ncn1-c1nc2ccccc2s1 |  |  | 82.7 | 63.9
69 | CNS(=O)(=O)Cc1ccc(-n2cnc3c(O)c(Cl)cc(Cl)c3c2=O)cc1 |  |  | 93 | 98
70 | O=c1c2c(Cl)cc(Cl)c(O)c2ncn1CCN1Cc2ccccc2C1 |  |  | 103 | 62.1
71 | O=c1c2c(Cl)cc(Cl)c(O)c2nc2n1CCC2 |  |  | 115 | 93.9
72 | O=c1c2c(Cl)cc(Cl)c(O)c2ncn1CC1CCN(Cc2ccccc2)CC1 |  |  | 109 | 83.4
73 | CCN(CC)C(=O)Cn1cnc2c(O)c(Cl)cc(Cl)c2c1=O |  |  | 122 | 104
74 | CCNCCn1cnc2c(O)c(Cl)cc(Cl)c2c1=O |  |  | 100 | 107
75 | O=c1c2c(Cl)cc(Cl)c(O)c2ncn1CCNC1CC1 |  |  | 98.8 | 96.2
76 | Cc1noc(-n2cnc3c(O)c(Cl)cc(Cl)c3c2=O)c1C |  |  | 99.6 | 95.4
77 | CC(C)Cn1c(CN(C)C)nc2c(O)c(Cl)cc(Cl)c2c1=O |  |  | 104 | 61.5
78 | Cc1nc2ccccc2c(=O)n1O |  |  | 101 | 115
